Experimental data as given in patent US5145839A, “Pharmaceutical composition and method of use” (priority 1988, dated 1992).

Key:
[1] = test system: tobacco mosaic virus (TMV); experiment: tobacco mosaic virus multiplication on tobacco leaf (plaque forming units); conditions: 20-50 micrograms per milliliter, virus incubated at 30° C. for 30 min.; xanthy tobacco leaf; checked two to three days later; FIG. 7
Description: The effect of naringin prepared according to Example 1, of commercial naringin and of commercial naringenin has been tested on tobacco mosaic virus (TMV). In this experiment, viral suspension containing 2 μg of virus/ml of distilled water, was incubated at 30° C. for 30 min. with each of the above compounds (20-50 micrograms per milliliter) and then 20 μl placed on one-half of the leaf ([…] tobacco) while the same concentration of untreated virus was placed on the other half of the same leaf. The appearance of viral disease was checked two to three days later. […] Naringenin or commercial naringin gave similar results.

[2] = test system: normal cell DNA (spleen and bone marrow); experiment: UV absorbance at 260 nm (hypochromicity, DNA chain contraction), normal cell DNA; conditions: normal human spleen and bone marrow DNA, 20 μg in 1 ml Tris-HCl pH 7.3, 260 nm; FIGS. 5a, 5b
Source text: (§1) Naringin prepared in accordance with Example 1, and a commercial sample of naringenin prepared by Roth Co. of France, were used for comparison. […] The results are expressed as decrease of UV absorbance (hypochromicity) in the presence of various concentrations of the agent. The hypochromicity corresponds to DNA chain contraction, while hyperchromicity would correspond to DNA chain opening (i.e. the breaking of hydrogen bonds which normally hold the two DNA chains together). The spleen and bone marrow DNAs used in this test were from normal human spleen and bone marrow tissue cells. UV absorbance at wavelength of 260 nm for different DNAs from normal and cancer cells is performed at room temperature. 20 μg (micrograms) of DNA (deoxyribonucleic acid) are dissolved in 1 ml of Tris-HC1 buffer (10^-2 molar, pH adjusted to 7.3, solution made using sterile distilled water). The absorbance is measured before and after addition of either naringin or naringenin. The blank cuvette contains an equivalent amount of naringin or naringenin, but not DNA. The contact between DNA and compound is of about one minute (very slight agitation). The absorbance at 260 nm is then measured. The results are expressed as diminution (%) of UV absorbance.

[3] = test system: Terminal deoxynucleotidyl Transferase (TdT); experiment: in vitro activity of TdT in cat leucosis vaccine (Leucocell); type: biochemical; conditions: 10 minutes at 36° C., pH 7.70, FIG. 6
Source text: Both naringin and naringenin inhibit in vitro the activity of Terminal deoxynucleotidyl Transferase (TdT), an enzyme involved in the integration of viral genome into host cell. This enzyme is present in cat leucosis vaccine prepared by genetic engineering (Engerix® Leucocell vaccine), vaccine highly purified. I have previously shown that this enzyme catalyzes the polymerisation of d-TMP and d-CMP originating from d-TTP and d-CTP used respectively as substrates.
(§2) For testing the activity of TdT, the incubation medium (0.10 ml final volume) contains: 25 μmoles fresh solution of Tris-HC1 buffer pH 7.70; 2 μmoles MgCl2; (^3 d-NTP (deoxynucleoside-5'-triphosphate, 100,000 CPM). Increasing amounts of Leucocell vaccine (as indicated in FIG. 6) are used. Incubation for 10 minutes at 36° C., then addition of an equal volume of trichloroacetic acid (TCA 5%). Acid-precipitable material is filtered on millipore (Whatman GF/C), washed with 5% TCA then with 95° alcohol. After millipore drying, radioactivity of acid-insoluble material is measured in scintillation spectrometer Packard. The results are expressed as CPM (counts/minute)/sample.

[4] = test system: cancer cell DNA; experiment: UV absorbance at 260 nm (hypochromicity, DNA chain contraction), cancer cell DNA; conditions: 20 μg DNA in 1 ml Tris-HCl pH 7.3, room temperature, FIGS. 5a, 5b
Source text: as §1

[5] = test system: Terminal deoxynucleotidyl Transferase (TdT); experiment: in vitro activity of TdT which contaminates Engerix-vaccine antigen B; type: biochemical; conditions: TdT which contaminates Engerix-vaccine antigen B (DNA virus antigen), same conditions
Description: as §2
In contrast, the activity of TdT which contaminates Engerix®-vaccine antigen B (Med. Sci. Res. 1987, vol.15 pp. 529-530), an antigen prepared from DNA virus is not inhibited, under the same conditions, by naringin or naringenin. Thus both naringin and naringenin selectively interfere with the proliferation of RNA virus but not DNA virus. However, as RNA from RNA-virus is transcribed into DNA by reverse transcriptase before being integrated into cell genome (potential role of TdT), naringin and naringenin are equally useful agents in treatment of all DNA infections equally.

[6] = test system: BALB C mice; experiment: toxicity by intravenous route in BALB C mice; type: in vivo, mouse; conditions: for toxic effect: i.v. route, 10% DMSO, BALB C mice; for tolerability: i.v. injection or perfusion, doses from 250-1000 mg/kg (concluded)
Source text: This example illustrates the absence of toxicity of naringin or naringenin injected by intravenous route to BALB C mice.

[7] = test system: normal human bone marrow cells; experiment: effect on in vitro cultured normal human bone marrow cells; type: cell-based; conditions: various concentrations; FIG. 2
Description: (§3) Naringin prepared in Example 1 has been used for determining its effect on in vitro cultured human cancer and normal cells, according to the method of Shoermaker R.H. et al., Cancer Research 45: 2145-2153, 1985). Culture medium contained 100 μg of penicillin and streptomycin in order to prevent bacterial contamination.

[8] = test system: Ehrlich ascitic cells; experiment: mice bearing Ehrlich ascitic cells; type: in vivo, Swiss mice; conditions: than lymphoma YC8 cells
Description: (§4) O BALB C mice bearing lymphoma YC8 (ascitic form) and Swiss mice bearing Ehrlich ascitic cells (20-22 grams, Charles River breeding) were distributed at random in sets of 10.
Set II: Mice bearing tumor cells received JO-1 (= naringin, Example 1): 0.2 ml/mouse, twice/day, i.p. route (for JO-1 concentrations, see Tables 1, 3, and 4, and FIG. 10.)
(§5) Ascitic tumor cells were taken in sterile medium from mice bearing these cells for 15-20 days. 0.1 ml of ascitic suspension was mixed with 10 ml of buffered solution (pH 7.2) : (NaCl 7.2 g/l; Na2 HPO4 4.3 g/l and KH2 PO4 0.4 g/l).
(§6) The number of cells was determined (by Malassez cell) and cellular suspension diluted in order to get cell number close to 40.000-50.000/ml. 0.1 ml of this suspension was immediately injected by i.p. route to mice in sets I, II and III and by i.m. route to mice in set IV.
(§7) Treatment: 48 hours after injection of tumor cells: the mice of set II received (i.p.) JO-1 heated at 37° and filtered on millipore, treatment for five consecutive days; the mice of set III were treated (i.p.) by a mixture of JO-1 and one of the antibiotics for 5 consecutive days; the mice of set I (control) received (i.p.) only isotonic solution for 5 consecutive days; the mice of set IV received (i.m.) JO-1 for 15 consecutive days.
Only the survivors in excellent physical condition were taken into consideration .

[9] = test system: tumor cells; experiment: mice bearing tumor cells treated with naringin and a chemotherapeutic agent; type: in vivo, mouse; conditions: with 5-fluorouracil, ARA-C, Endoxan, hydroxy-urea; i.p.; FIGS. 9a-9b, 10a-10d
Description: as §4
Set III: Mice bearing tumor cells received naringin (JO-1): 0.2 ml/mouse twice/day (for concentrations, see FIGS. 9 and 10), i.p. route and, at the same time these mice received a chemotherapeutic agent (for concentrations, see FIGS. 9 and 10) i.p. route.
as §5, §6
as §7, with “days. […]” for “days.”

[10] = test system: DNA from cancerous tissue; experiment: in vitro synthesis of tritium-labeled cancer DNA, agent added at different points in time; type: biochemical; conditions: FIGS. 4a, 4b
Source text: The same test method was used on DNA from cancerous tissue, determining the amount of tritium-labeled DNA synthesized over a period of time and the effect of introducing naringin at different points in time.

[11] = test system: human cancer cells; experiment: effect on in vitro cultured human cancer cells; type: cell-based; conditions: various concentrations; ovary cancer and leukemic cells resistant to classical chemotherapy; FIG. 2
Description: as §3

[12] = test system: DNA from normal monkey brain; experiment: in vitro synthesis (replication) of DNA from normal monkey brain; type: biochemical; conditions: Macaca mulatta brain; FIG. 3
Source text: (§8) […]
(§9) DNAs used were isolated from human cancer and normal tissues furnished by different hospitals as indicated in IRCS Medical Science 14: 809-810, 1986. The normal brain tissue originated from Macaca mulatta.

[13] = test system: DNAs from normal tissues (human bone marrow and spleen); experiment: in vitro synthesis (replication) of DNA from normal human tissues; type: biochemical; conditions: FIG. 3
Source text: as §8, §9

[14] = biological activity compared with commercial compounds; conditions: compared with that exhibited by commercial compounds
[15] = test system: DNAs from different human cancer tissues, i.e. breast, colon and liver cancers; experiment: in vitro synthesis (replication) of DNA from human cancer tissues; type: biochemical; conditions: FIG. 3
Source text: as §8, §9

SMILES | inhibition of TMV multiplication [1] | contraction of normal cell DNA chains (hypochromicity) [2] | inhibition of in vitro activity of TdT [3] | contraction of cancer cell DNA chains (hypochromicity) [4] | inhibition of in vitro activity of TdT [5] | toxic effect ([6]; 125 mg/kg) | toxic effect ([6]; 250 mg/kg) | toxic effect ([6]; 500 mg/kg) | tolerability [6] | effect on in vitro cultured normal human bone marrow cells [7] | sensitivity of Ehrlich ascitic cells to naringin compared with lymphoma YC8 cells [8] | synergistic action with classical antibiotics [9] | effect on DNA chain elongation ([10]; added after the reaction starts) | effect on DNA initiation ([10]; given at zero time of incubation) | inhibition of in vitro cultured human cancer cells [11] | effect on in vitro synthesis of DNA from normal monkey brain [12] | effect on in vitro synthesis of DNAs from normal human tissues [13] | biological activity [14] | inhibition of in vitro synthesis of DNAs from human cancer tissues [15]
O=C1C[C@@H](c2ccc(O)cc2)Oc2cc(O)cc(O)c21 [naringenin] | inhibits TMV multiplication | either no effect or a very slight effect | inhibit in vitro activity of TdT | contract cancer cell DNA chains | not inhibited | no toxic effect | no toxic effect | no toxic effect | well tolerated |  |  |  |  |  |  |  |  |  | 
C[C@@H]1O[C@@H](O[C@H]2[C@H](Oc3cc(O)c4c(c3)O[C@H](c3ccc(O)cc3)CC4=O)O[C@H](CO)[C@@H](O)[C@@H]2O)[C@H](O)[C@H](O)[C@H]1O [naringin] | inhibits TMV multiplication | either no effect or a very slight effect | inhibit in vitro activity of TdT | contract cancer cell DNA chains | not inhibited | no toxic effect | no toxic effect | no toxic effect | well tolerated | little effect | less sensitive | synergistic action | stops DNA chain elongation | acts on DNA initiation sites | strongly inhibits | practically unaffected | practically unaffected | better biological activity | strongly inhibits
